One series deals with U251 (glioma, CNS). Kind of series: cells. How it is done: The GI50 values (growth inhibitory activity) (Table 1) refer to the drug concentration that produces a 50% reduction of cellular growth compared with the untreated control cells. The TGI (cytostatic activity) and LC50 (cytotoxic activity) values (Table 2) refer to the drug concentration required for total growth inhibition and killing 50% of the cells, respectively.
The synthesized compounds were assessed in the following ten human tumor cell lines from various tissues kindly provide by the National Cancer Institute (Frederick, MD, USA): U251 (glioma, CNS), MCF-7 (breast), NCI-ADR/RES (breast expressing the multiple drug resistance phenotype), 786-0 (renal), NCI-H460 (lung, non-small cells), PC-3 (prostate), OVCAR-3 (ovarian), HT-29 (colon), K-562 (leukemia) and HaCaT (keratinocytes). Stock cultures were grown in media containing 5 mL of RPMI 1640 (Gibco BRL) supplemented with 5% fetal bovine serum. Gentamicin ([…]) was added to the experimental cultures. Cells in 96-well plates (100 µL cells/well) were exposed to sample concentrations in DMSO/RPMI (0.25, 2.5, 25, and 250 µg/mL) at 37 °C and 5% CO2 for 48 h. […] Next, cells were fixed with 50% trichloroacetic acid, and cell proliferation was determined by spectrophotometric quantification (540 nm) of cellular protein content employing the sulforhodamine B assay. Doxorubicin (0.025–25 µg/mL) was used as a positive control. Three measurements were obtained: first at time point zero (T0, at the beginning of incubation) and then 48 h post-incubation for both the compound-free (C) and tested (T) cells. Cell proliferation was determined using the equation 100 × [(T − T0)/C − T0]. A cytostatic effect was observed when T ≥ T0, while a cytocidal effect occurred when T < T0. The experiments were performed in triplicate.

In another series the test system is MCF-7 (breast). Kind of series: Anticancer assay in vitro (sulforhodamine B), MCF-7. The class given is cell-based. Particulars: for GI50: Homo sapiens, MCF7, MCF-7, 48 h, SRB; for TGI: MCF-7, total growth inhibition, 48 h. How it is done:
(§1) The experiments were performed in triplicate.

Another series has as its system OVCAR-3 (ovarian). Nature of the series: Anticancer assay in vitro (sulforhodamine B), OVCAR-3. The class given is cell-based. Particulars: for TGI: OVCAR-3, total growth inhibition, 48 h; for GI50: SRB. How it is done: as §1
The test system of the next series is HT-29 (colon). Kind of series: Anticancer assay in vitro (sulforhodamine B), HT-29. Particulars: for GI50: SRB. The class given is cell-based. How it is done:
as §1

In another series the test system is 786-0 (renal). Kind of series: cells. The class given is cell-based. Particulars: for GI50: SRB. As for the experimental part: as §1
A further series relates to K-562 (leukemia). Kind of series: cells. The class given is cell-based. Particulars: for GI50: Homo sapiens, K562, K-562, 48 h, SRB. How it is done: as §1
Series [1] has as its system NCI-ADR/RES (breast expressing the multiple drug resistance phenotype). Kind of series: cells. The class given is cell-based. To be noted: NCI/ADR-RES, 48 h; for GI50: SRB. How it is done:
as §1

The test system of series [2] is NCI-H460 (lung, non-small cells). Kind of series: cells. The class given is cell-based. Particulars: for GI50: SRB. How it is done: as §1
A further series relates to PC-3 (prostate). Nature of the series: cells. To be noted: for GI50: Homo sapiens, PC-3, 48 h, SRB; for TGI: PC-3, total growth inhibition, 48 h. The class given is cell-based. As for the experimental part:
as §1

The test system of another series is HaCaT (keratinocytes). Nature of the series: Anticancer assay in vitro (sulforhodamine B), HaCaT. The class given is cell-based. Particulars: 48 h; for GI50: Homo sapiens, SRB. How it is done: as §1
For series [3], the system named is ten human tumor cell lines. Kind of series: Anticancer assay in vitro (sulforhodamine B), statements over the panel of cell lines. The class given is cell-based. How it is done:
as §1

One may read the GI50 as the concentration at which growth is held to half of that of the control. Broadly, the TGI is the concentration giving total growth inhibition.

In brackets after ≈: the same amount, converted by molar mass.

Consider `COC(=O)c1cc(O)c(O)c(O)c1` [Compound 2, Methyl gallate], for which the 50% growth inhibitory concentration (GI50) with U251 (glioma, CNS) (Homo sapiens, U-251, 48 h) turned out to be 0.16 µM; in the series with MCF-7 (breast), 0.16 µM; in the series with HT-29 (colon) (Homo sapiens, HT-29, 48 h), 0.49 µM; with 786-0 (renal) (Homo sapiens, 786-0, 48 h), 0.65 µM; in the series with K-562 (leukemia), 0.31 µM; in [1] (Homo sapiens), 0.12 µM. Further, the 50% growth inhibitory concentration (GI50) was 0.13 µM in series [2] (Homo sapiens, NCI-H460, 48 h); 0.57 µM in the series with PC-3 (prostate); 0.26 µM in the series on HaCaT (keratinocytes). The CC50 in the series with U251 (glioma, CNS) (Homo sapiens, U-251, 48 h, read-out: LC50) was 29.2 µg/mL (≈ 159 µM); in the series on OVCAR-3 (ovarian) (Homo sapiens, OVCAR-3, 48 h, read-out: LC50) it was 33.7 µg/mL (≈ 183 µM); in the series with HT-29 (colon) (Homo sapiens, HT-29, 48 h, read-out: LC50), 30.6 µg/mL (≈ 166 µM); in the series on 786-0 (renal) (Homo sapiens, 786-0, 48 h, read-out: LC50), 31.4 µg/mL (≈ 170 µM); in series [1] (Homo sapiens, read-out: LC50), 30.3 µg/mL (≈ 164 µM); in series [2] (Homo sapiens, NCI-H460, 48 h, read-out: LC50), 34.9 µg/mL (≈ 190 µM). Besides, the concentration for total growth inhibition (TGI) with U251 (glioma, CNS) (U251, total growth inhibition, 48 h) came out at 4.10 µg/mL (≈ 22.3 µM); with MCF-7 (breast), 5.12 µg/mL (≈ 27.8 µM); in the series on OVCAR-3 (ovarian) it was 1.59 µg/mL (≈ 8.63 µM); in the series on HT-29 (colon) (HT-29, total growth inhibition, 48 h) it was 8.52 µg/mL (≈ 46.3 µM); in the series with 786-0 (renal) (786-0, total growth inhibition, 48 h), 8.62 µg/mL (≈ 46.8 µM); in the series with K-562 (leukemia) (K-562, total growth inhibition, 48 h), 5.67 µg/mL (≈ 30.8 µM). Besides, the total growth inhibition concentration (TGI) in series [1] (total growth inhibition) was 3.62 µg/mL (≈ 19.7 µM); in [2] (NCI-H460, total growth inhibition, 48 h), 7.97 µg/mL (≈ 43.3 µM); with PC-3 (prostate), 13.10 µg/mL (≈ 71.1 µM); in the series with HaCaT (keratinocytes) (total growth inhibition), 16.74 µg/mL (≈ 90.9 µM). Moreover, the “TGI values over the cell lines tested” value in series [3] (range over all human tumor cell lines) is 1.59 to 16.74 µM.

For `O=C(N/N=C/c1ccccc1)c1cc(O)c(O)c(O)c1` [Compound 4, N'-(Benzylidene)galloyl hydrazide], the GI50 came to 7.8 µM with U251 (glioma, CNS) (Homo sapiens, U-251, 48 h); 5.55 µM with MCF-7 (breast); 1.24 µM with OVCAR-3 (ovarian) (Homo sapiens, OVCAR-3, 48 h); 7.53 µM in the series with HT-29 (colon) (Homo sapiens, HT-29, 48 h); 9.06 µM in the series on 786-0 (renal) (Homo sapiens, 786-0, 48 h); 9.96 µM in the series with K-562 (leukemia). Also, the concentration for 50% growth inhibition (GI50) in series [1] (Homo sapiens) is 7.16 µM; in [2] (Homo sapiens, NCI-H460, 48 h) it was 11.2 µM; in the series with PC-3 (prostate) it was 5.07 µM; with HaCaT (keratinocytes) it was 8.29 µM; in series [3] (Homo sapiens, bound or range over all (for 4: nine) human tumor cell lines, read-out: GI50 values over the cell lines tested), 1.24 to 9.96 µM. Besides, the TGI came out at 23.54 µg/mL (≈ 86.5 µM) in the series on MCF-7 (breast) and 29.61 µg/mL (≈ 109 µM) with OVCAR-3 (ovarian).

In the case of `O=C(N/N=C/c1ccc([N+](=O)[O-])cc1)c1cc(O)c(O)c(O)c1` [Compound 6, N'-(4-Nitrobenzylidene)galloyl hydrazide], the 50% growth inhibitory concentration (GI50) in the series with U251 (glioma, CNS) (Homo sapiens, U-251, 48 h) is 5.12 µM; with OVCAR-3 (ovarian) (Homo sapiens, OVCAR-3, 48 h), 5.91 µM; in the series with 786-0 (renal) (Homo sapiens, 786-0, 48 h), 7.6 µM; in [1] (Homo sapiens), 8.46 µM; in the series on PC-3 (prostate), 14 µM; with HaCaT (keratinocytes) it was 31.6 µM. This compound also gave a concentration for total growth inhibition (TGI) in the series on PC-3 (prostate) of 84.67 µg/mL (≈ 267 µM). For the same compound, the cytotoxic efficacy entry in series [3] (OVCAR-3 and K-562 cell lines) is “did not demonstrate cytotoxic efficacy”.

The record behind these values is publication PMC6272127, “Synthesis, Antiproliferative Activity and Molecular Properties Predictions of Galloyl Derivatives” (Molecules, 2015).
